Measurements from patent US20260034094A1, “COMPOSITIONS AND METHODS FOR INDUCING FERROPTOSIS” (Kojin Therapeutics, Inc., priority 2022, published 2026).
Several values for one entry are separate records, joined by “and”; a condition that tells them apart may be missing. Identical values can stand only once. Like-named read-outs stand apart in the source and are kept apart here.

Experiments:
human recombinant GCL = human recombinant GCL (Homo sapiens (Human), UniProt P48506); test: GCL enzyme profiling assay (ADP-Glo luminescence); type: biochemical
Procedure, shortened: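 ADP-Glo luminescence readout; 5 nM enzyme preincubated 1 h at 22 °C with 0.6 mM ATP, then started with 1 mM glutamate and 1.2 mM α-aminobutyrate, stopped after 2 h. Buffer: HEPES pH 7.5, MgCl2, DTT, BSA, 0.2% F-127, 1% DMSO. IC50 from four-parameter logistic fit.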

RKN cells = test: RKN cell profiling assay (cell viability, CellTiter-Glo); type: cell-based; settings: read-out: Cell Killing EC50
Procedure, shortened: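 Cells seeded at 1,000/well in F-12 with 10% FBS, left to adhere 24 h, then compound-treated for 96 h at 0.5% final DMSO. Viability by CellTiter-Glo luminescence; EC50 from four-parameter logistic fit. Ferroptosis rescue runs included 1.5 μM ferrostatin-1 added at seeding.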

[1] = human recombinant GCL 5 nM, 1 h preincubation with ATP, read-out: GCL IC50
[2] = human recombinant GCL, ADP-Glo, read-out: GCL IC50
[3] = human recombinant GCL 5 nM, 1 h preincubation with ATP, read-out: GCL IC50 (mM), individual values in parentheses

Sequence of human recombinant GCL (P48506 whole entry): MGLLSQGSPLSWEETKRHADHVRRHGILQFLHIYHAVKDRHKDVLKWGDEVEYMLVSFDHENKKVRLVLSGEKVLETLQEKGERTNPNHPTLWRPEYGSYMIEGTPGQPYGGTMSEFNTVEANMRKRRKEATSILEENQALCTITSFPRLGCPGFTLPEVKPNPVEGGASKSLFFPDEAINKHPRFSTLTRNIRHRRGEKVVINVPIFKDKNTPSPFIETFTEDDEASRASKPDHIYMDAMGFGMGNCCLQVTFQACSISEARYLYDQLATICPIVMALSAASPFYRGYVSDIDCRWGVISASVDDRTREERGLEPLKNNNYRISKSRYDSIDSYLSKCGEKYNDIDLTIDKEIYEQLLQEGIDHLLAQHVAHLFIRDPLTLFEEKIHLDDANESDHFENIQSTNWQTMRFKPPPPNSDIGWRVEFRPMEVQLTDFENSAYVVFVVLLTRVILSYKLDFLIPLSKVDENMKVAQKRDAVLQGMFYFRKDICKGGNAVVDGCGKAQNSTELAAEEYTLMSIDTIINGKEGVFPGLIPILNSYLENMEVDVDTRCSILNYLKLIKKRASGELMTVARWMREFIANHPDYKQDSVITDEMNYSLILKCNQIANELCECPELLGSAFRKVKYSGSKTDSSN

Row | Compound | IC50 (human recombinant GCL; [1]) | EC50 (RKN cells; 96 h, 96 h exposure) [mM] | IC50 (human recombinant GCL; [2]) [mM] | EC50 (RKN cells; cell viability) [mM] | IC50 (human recombinant GCL; [3])
1 | Cc1ccc(CCS(=N)(=O)CC[C@H](N)C(=O)O)cc1 (some centres unmarked) [Compound 11] | ≤ 0.02 mM | ≥ 1 | – | – | –
2 | N=S(=O)(CC[C@@H](O)C(F)(F)F)CC[C@H](N)C(=O)O (single isomer, unassigned) [Compound 328] | – | – | ≤ 0.02 | < 1 | –
3 | N=S(=O)(CCc1ccccc1C1CC1)CC[C@H](N)C(=O)O (some centres unmarked) [Compound 34] | 0.02 to 2 mM | ≥ 1 | – | – | –
4 | CCCCS(=N)(=O)CC[C@H](N)C(=O)NCC(N)=O (some centres unmarked) [Compound 112] | 0.02 to 2 mM | ≥ 1 | – | – | –
5 | CN(C)C(=O)C1(CCS(=N)(=O)CC[C@H](N)C(=O)O)CCC1 (some centres unmarked) [Compound 193] | 0.02 to 2 mM | ≥ 1 | – | – | –
6 | N=S(=O)(CC[C@H](N)C(=O)O)CCC1(n2ncc(-c3ccccn3)n2)CCC1 (some centres unmarked) [Compound 418] | – | – | 0.02 to 2 | ≥ 1 | –
7 | N=S(=O)(CC[C@H](N)C(=O)O)CCC(O)(c1ccc(-c2cccc3ccccc23)cc1)C(F)(F)F (some centres unmarked) [Compound 444] | – | – | ≤ 0.02 | < 1 | –
8 | N=S(=O)(CCC(c1ccc(S(=O)(=O)Nc2ccccc2)cc1)C(F)(F)F)CC[C@H](N)C(=O)O (some centres unmarked) [compound 499] | – | – | ≤ 0.02 | ≥ 1 | –
9 | CCCCOC(=O)[C@@H](N)CCS(=N)(=O)CCC1CCCCC1 (some centres unmarked) [Compound 78] | 0.02 to 2 mM | < 1 | – | – | –
10 | CC(C)(N)CCS(=N)(=O)CC[C@H](N)C(=O)O (some centres unmarked) [Compound 183] | > 2 mM | ≥ 1 | – | – | –
11 | CCCCOC(=O)[C@@H](N)CCS(=N)(=O)CCCC(F)(F)F (some centres unmarked) [Compound 79] | > 2 mM | < 1 | – | – | –
12 | N=S(=O)(CCCC(O)(c1ccc(-c2ccccc2)cc1)C(F)(F)F)CC[C@H](N)C(=O)O (some centres unmarked) [Compound 335] | – | – | 0.02 to 2 | ≥ 1 | –
13 | COc1ccccc1CCS(=N)(=O)CC[C@H](N)C(=O)O (some centres unmarked) [Compound 20] | 0.02 to 2 mM | ≥ 1 | – | – | –
14 | N=S(=O)(CC[C@H](N)C(=O)O)CCC(c1ccc(-c2ccc(Cl)cc2Cl)cc1)(C(F)(F)F)C(F)(F)F (some centres unmarked) [compound 510] | – | – | ≤ 0.02 | ≥ 1 | –
15 | N=S(=O)(CC[C@H](N)C(=O)O)CCC(O)(c1cccnc1)C(F)(F)F (some centres unmarked) [Compound 361] | – | – | 0.02 to 2 | ≥ 1 | –
16 | CCOC(=O)[C@@H](N)CC[S@@](=N)(=O)CC[C@@H](O)C(F)(F)F [Compound 486, ethyl (S)-2-amino-4-((R,3R)-4,4,4-trifluoro-3-hydroxybutylsulfonimidoyl)butanoate] | – | – | 0.02 to 2 | < 1 | –
17 | N=S(=O)(CC[C@H](N)C(=O)O)CCC1(c2ccc(-c3ccc(O)cc3Cl)cc2)CCC1 (some centres unmarked) [Compound 401] | – | – | ≤ 0.02 | ≥ 1 | –
18 | N=S(=O)(CC[C@H](N)C(=O)O)CCC(O)(Cc1ccccc1)C(F)(F)F (some centres unmarked) [Compound 354] | – | – | 0.02 to 2 | ≥ 1 | –
19 | CC(C)(CCS(=N)(=O)CC[C@H](N)C(=O)O)c1ccccc1Cl (some centres unmarked) [Compound 66] | 0.02 to 2 mM | ≥ 1 | – | – | –
20 | COc1ccc(Cl)cc1-c1ccc(C(CCS(=N)(=O)CC[C@H](N)C(=O)O)C(F)(F)F)cc1 (some centres unmarked) [Compound 236] | – | – | ≤ 0.02 | < 1 | –
21 | CC(C)(C)CCS(=N)(=O)CC[C@H](N)C(=O)NC1CC1 (some centres unmarked) [Compound 113] | 0.02 to 2 mM | < 1 | – | – | –
22 | N[C@@H](CCS(=O)(=O)CCC(O)(c1ccccn1)C(F)(F)F)C(=O)O (stereo partly drawn) [Compound 351, (2S)-2-amino-4-((4,4,4-trifluoro-3-hydroxy-3-(pyridin-2-yl)butyl)sulfonyl)butanoic acid] | – | – | ≤ 0.02 | ≥ 1 | –
23 | CC(C)(C)OC(=O)[C@@H](N)CC[S@](=N)(=O)CC[C@H](O)C(F)(F)F [Compound 490] | – | – | > 2 | ≥ 1 | –
24 | CCCCc1ccc(C(CCS(=N)(=O)CC[C@H](N)C(=O)O)C(F)(F)F)cc1 (some centres unmarked) [Compound 224] | – | – | ≤ 0.02 | < 1 | –

Row | Compound | IC50 (human recombinant GCL; [1]) | EC50 (RKN cells; 96 h, 96 h exposure) [mM] | IC50 (human recombinant GCL; [2]) [mM] | EC50 (RKN cells; cell viability) [mM] | IC50 (human recombinant GCL; [3])
25 | N#CC1CC=C(c2ccc(C(CCS(=N)(=O)CC[C@H](N)C(=O)O)C(F)(F)F)cc2)CC1 (stereo partly drawn) [Compound 214, (2S)-2-amino-4-(3-(4′-cyano-2′,3′,4′,5′-tetrahydro-[1,1′-biphenyl]-4-yl)-4,4,4-trifluorobutylsulfonimidoyl)butanoic acid] | – | – | ≤ 0.02 | ≥ 1 | –
26 | N=S(=O)(CC[C@H](N)C(=O)O)CCC(O)(c1ccc(-c2cnco2)cn1)C(F)(F)F (some centres unmarked) [Compound 480] | – | – | 0.02 to 2 | ≥ 1 | –
27 | N=S(=O)(CC[C@H](N)C(=O)O)CCC(O)(c1ccsn1)C(F)(F)F (some centres unmarked) [Compound 370] | – | – | ≤ 0.02 | < 1 | –
28 | CCCCNC(=O)[C@@H](N)CCS(=N)(=O)CCC(C)(C)C (stereo partly drawn) [Compound 100, (2S)-2-amino-N-butyl-4-(3,3-dimethylbutylsulfonimidoyl)butanamide] | > 2 mM | < 1 | – | – | –
29 | CC(C)(C)CCS(=N)(=O)CC[C@H](N)C(=O)Nc1cc[nH]n1 (some centres unmarked) [Compound 123] | > 2 mM and 0.02 to 2 mM | ≥ 1 | – | – | > 10 mM and 1.16 mM
30 | CC(C)(F)CCS(=N)(=O)CC[C@H](N)C(=O)O (some centres unmarked) [Compound 163] | 0.02 to 2 mM | < 1 | – | – | –
31 | N=S(=O)(CC[C@H](N)C(=O)O)CCC(O)(c1ccc(Oc2ccc3ccc(=O)oc3c2)cc1)C(F)(F)F (some centres unmarked) [compound 501] | – | – | ≤ 0.02 | ≥ 1 | –
32 | N=S(=O)(CCc1ccccc1O)CC[C@H](N)C(=O)O (some centres unmarked) [Compound 21] | ≤ 0.02 mM | < 1 | – | – | –
33 | CC(C)(C)[C@@H](N)CS(=N)(=O)CC[C@H](N)C(=O)O (some centres unmarked) [Compound 147] | > 2 mM | ≥ 1 | – | – | –
34 | N=S(=O)(CC[C@H](N)C(=O)O)CCC(O)(C1CCN(c2ccc(Cl)cc2Cl)CC1)C(F)(F)F (some centres unmarked) [Compound 379] | – | – | ≤ 0.02 | < 1 | –
35 | N=S(=O)(CCC(c1c[nH]c2ccccc12)C(F)(F)F)CC[C@H](N)C(=O)O (some centres unmarked) [Compound 64] | ≤ 0.02 mM | < 1 | – | – | –
36 | CCCCS(=N)(=O)CC[C@H](N)C(=O)NS(C)(=O)=O (stereo partly drawn) [Compound 104, (2S)-2-amino-4-(butylsulfonimidoyl)-N-(methylsulfonyl)butanamide] | 0.02 to 2 mM | ≥ 1 | – | – | –
37 | N=S(=O)(CC[C@H](N)C(=O)O)CCC(O)(c1ccccc1Cl)C(F)(F)F (stereo partly drawn) [Compound 209, (2S)-2-amino-4-(3-(2-chlorophenyl)-4,4,4-trifluoro-3-hydroxybutylsulfonimidoyl)butanoic acid] | ≤ 0.02 mM | < 1 | – | – | –
38 | CCCCS(=N)(=O)CC[C@H](NC(=O)OC)C(=O)OC (stereo partly drawn) [Compound 198, (2S)-methyl 4-(butylsulfonimidoyl)-2-((methoxycarbonyl)amino)butanoate] | > 2 mM | ≥ 1 | – | – | –
39 | CC(C)(C)CCS(=N)(=O)CC[C@H](N)C(=O)NS(C)(=O)=O (some centres unmarked) [Compound 111] | 0.02 to 2 mM | ≥ 1 | – | – | –
40 | COC(=O)C(C)(C)CCS(=N)(=O)CC[C@H](N)C(=O)O (some centres unmarked) [Compound 167] | 0.02 to 2 mM | < 1 | – | – | –
41 | N=S(=O)(CCc1ccc(Cl)cc1)CC[C@H](N)C(=O)O (stereo partly drawn) [Compound 1, (2S)-2-amino-4-(2-(4-chlorophenyl)ethylsulfonimidoyl)butanoic acid] | ≤ 0.02 mM | ≥ 1 | – | – | –
42 | N=S(=O)(CCC(C(F)(F)F)C(F)(F)F)CC[C@H](N)C(=O)O (some centres unmarked) [Compound 186] | ≤ 0.02 mM and 0.02 to 2 mM | < 1 | – | – | 0.022 mM and 0.0183 mM
43 | N=S(=O)(CC[C@H](N)C(=O)O)CCC(O)(c1ccc(Oc2ccccc2)cc1)C(F)(F)F (some centres unmarked) [Compound 334] | – | – | ≤ 0.02 | < 1 | –
44 | N=S(=O)(CCc1ccc(C(F)(F)F)cc1C(F)(F)F)CC[C@H](N)C(=O)O (some centres unmarked) [Compound 36] | ≤ 0.02 mM | < 1 | – | – | –
45 | N=S(=O)(CC[C@H](N)C(=O)O)CCC1(n2nc3ccccc3n2)CCC1 (some centres unmarked) [Compound 421] | – | – | ≤ 0.02 | ≥ 1 | –
46 | CC(C)(C)CCS(=N)(=O)CC[C@H](N)C(=O)NCC(F)(F)F (some centres unmarked) [Compound 114] | > 2 mM | < 1 | – | – | –
47 | N=S(=O)(CC[C@H](N)C(=O)O)CCC(O)(c1ccc(-c2ccccc2)cc1)C(F)(F)F (stereo partly drawn) [Compound 424, (2S)-4-(3-([1,1′-biphenyl]-4-yl)-4,4,4-trifluoro-3-hydroxybutylsulfonimidoyl)-2-aminobutanoic acid] | – | – | ≤ 0.02 | < 1 | –
48 | CC(C)(C)CCS(=N)(=O)CC[C@H](N)C(=O)O (some centres unmarked) [Compound 187] | 0.02 to 2 mM | < 1 | – | – | –
